Laboratory results from US5284850A, “Terpene amino alcohols and medicinal uses thereof” (Kuraray Co., Ltd., priority 1985, dated 1994).

System: sensitized bronchial muscle
Test: Antiallergic action: inhibition of egg albumin-induced contraction of sensitized guinea pig bronchial muscle
Assay type: tissue-based, guinea pigs of Hartley strain
Conditions: Cavia porcellus; for inhibition at 10 µM: 10^-5 M; for inhibition at 1 µM: 10^-6 M; for inhibition at 0.1 µM: 10^-7 M; for inhibition at 0.01 µM: 10^-8 M; for inhibition at 100 µM: 10^-4 M
Method: Male guinea pigs of Hartley strain (body weight: about 250 g) were intraperitoneally or intramuscularly dosed with egg albumin (dose 100 mg/kg) and the same procedure was repeated after 3 days. After 3 to 4 weeks, the guinea pi-as were bled to death and the sensitized bronchial muscle was excised and cut into 1.5 mm thick rings. Three rings were joined to prepare a specimen. The specimen was suspended in a tissue bath and a load of 1 g was applied. […] After stabilization of the specimen (after about 1 hour), histamine hydrochloride was added to the bath at a final concentration of 10^-5 M. The contraction curve was recorded. After the contraction had been stabilized, the specimen was washed with 3 portions of Ringer's solution at 10-minute intervals to stabilize the contraction (about 1 hour was required). Then, the test compound was added to the tissue bath and, after an interval of 10 minutes, 5 mg/ml of egg albumin was added. The contraction amplitude of the specimen was measured and the percent inhibition was calculated according to the following formula. [formula] A: Contraction amplitude of control group when egg albumin is added A': Contraction amplitude of dosage group when egg albumin is added
H: Contraction amplitude of control group when histamine hydrochloride is added
H': Contraction amplitude of dosage group when histamine hydrochloride is added

Compound | inhibition at 10 µM [%] | inhibition at 1 µM [%] | inhibition at 0.1 µM [%] | inhibition at 0.01 µM [%] | inhibition at 100 µM [%]
CC(C)=CCCC(C)(O)C(N)CO (stereo not shown) [Compound (50), 2-amino-3,7-dimethyl-6-octene-1,3-diol] | 55 | 20 | 0 |  | 
CCCCN(CCCC)C(CO)C(C)(O)CCC=C(C)C (stereo not shown) [Compound (53)] | 33 | 59 | 49 | 8 | 
CNC(C)C(C)(O)CCCC(C)(O)CCCC(C)C (stereo not shown) [Compound (70), 2-(methylamino)-3,7,11-trimethyl-3,7-dodecanediol] |  | 42 | 19 |  | 
CC(C)=CCCC(C)(O)C(O)CN1CCCC1 (stereo not shown) [(3)] | 36.3 | 60 | 34.2 | 30.8 | 
CC(C)CCCC(C)CCCC(C)(O)C(O)CNCCO (stereo not shown) [Compound (14)] | 48.7 | 51.4 |  |  | 
CC(C)CCCC(C)CCCC(C)(O)C(CO)n1ccnc1 (stereo not shown) [Compound (64)] |  |  | 63 |  | 
CC(C)CCCC(C)CCCC(C)(O)C(O)CN1CCN(C(c2ccccc2)c2ccccc2)CC1 (stereo not shown) [Compound (24)] |  | 75 | 60 | 25 | 
CC(C)CCCC(C)CCCC(C)(O)C(O)CNCc1cccnc1 (stereo not shown) [Compound (41)] |  |  | 46 |  | 
CC(C)CCCC(C)(O)CCCC(C)(O)C(C)N(C)Cc1ccccc1 (stereo not shown) [Compound (71), 2-(benzylmethylamino)-3,7,11-trimethyl-3,7-dodecanediol] |  | 37 | 46 |  | 
CC(C)=CCCC(C)(O)C(O)CN1CCOCC1 (stereo not shown) [Compound (5)] | 28.9 | 71.5 | 23 |  | 
CC(C)CCCC(C)CCCC(C)CCCC(C)(O)C(CO)N(C)CCOC(=O)c1cccnc1 (stereo not shown) [Compound (74)] | 43 | 16 | 20 |  | 
CC(C)CCCC(C)CCCC(C)(O)C(O)CN1CCCC1 (stereo not shown) [Compound (38)] |  |  | 36.7 |  | 
CC(C)CCCC(C)CCCC(C)(O)C(O)CN1CCSCC1 (stereo not shown) [Compound (26)] | 50 | 39 | 18 |  | 
CC(C)CCCC(C)CCCC(C)(O)C(CO)NCCO (stereo not shown) [Compound (67)] | 46 | 49 | 18 |  | 
CC(C)CCCC(C)(O)CCCC(C)(O)CCN(C)Cc1ccccc1 (stereo not shown) [Compound (29), 1-(methylbenzylamino)-3,7,11-trimethyl-3,7-dodecanediol] |  |  | 42.3 |  | 
CC(C)CCCC(C)(O)C(CO)N(C)CCO (stereo not shown) [Compound (60), 2-[(2-hydroxyethyl)methylamino]-3,7-dimethyl-1,3-octanediol] | 35 | 11 | 0 |  | 
CNCC(O)C(C)(O)CCCC(C)CCCC(C)C (stereo not shown) [Compound (12), 1-methylamino-3,7,11-trimethyl-2,3-dodecanediol] | 35.4 |  |  |  | 48.3
CCN(CC)CC(O)C(C)(O)CCCC(C)CCCC(C)CCCC(C)C (stereo not shown) [(33)] | 47.9 | 32.6 |  |  | 
CC(C)=CCCC(C)(O)C(O)CN1CCCCC1 (stereo not shown) [Compound (4)] | 42 | 2.6 |  |  | 
COc1ccc(CN2CCN(C(CO)C(C)(O)CCCC(C)CCCC(C)C)CC2)c(OC)c1OC (stereo not shown) [Compound (65)] | 73 | 54 | 37 |  | 
CC(C)CCCC(C)CCCC(C)CCCC(C)(O)C(CO)N(C)CCO (stereo not shown) [Compound (73)] | 36 | 58 | 47 | 21 | 
CCCNC(CO)C(C)(O)CCC=C(C)C (stereo not shown) [Compound (52)] | 62 | 31 | 7 | 0 | 
CNCCC(C)(O)CCCC(C)(O)CCCC(C)C (stereo not shown) [Compound (27), 1-(methylamino)-3,7,11-trimethyl-3,7-dodecanediol] |  |  | 15.6 |  | 
CC(C)=CCCC(C)(O)C(CO)N(C)C (stereo not shown) [Compound (51)] | 41 | 18 | 0 |  | 
CC(C)CCCC(C)CCCC(C)(O)C(O)CN (stereo not shown) [Compound (11), 1-amino-3,7,11-trimethyl-2,3-dodecanediol] | 40.7 | 32.5 |  |  | 
CC(C)CCCC(C)(O)C(O)CN (stereo not shown) [Compound (7)] | 54.3 | 48.1 | 58.7 |  | 
CCNCC(O)C(C)(O)CCC=C(C)C (stereo not shown) [Compound (46)] | 54 | 23 |  |  | 38

Compound | inhibition at 10 µM [%] | inhibition at 1 µM [%] | inhibition at 0.1 µM [%] | inhibition at 0.01 µM [%] | inhibition at 100 µM [%]
CNC(CO)C(C)(O)CCCC(C)CCCC(C)C (stereo not shown) [Compound (62)] | 39 | 35 | 12 |  | 
CNCC(O)C(C)(O)CCCC(C)C (stereo not shown) [Compound (8)] | 37.8 |  |  |  | 52.6
CC(C)CCCC(C)(O)C(N)CO (stereo not shown) [Compound (58)] | 0 | 0 |  |  | 21
CC(C)=CCCC(C)(O)C(O)CN(C)C (stereo not shown) [Compound (45)] | 41 | 26 |  |  | 52
CCCCN(CCCC)CC(O)C(C)(O)CCC=C(C)C (stereo not shown) [(1)] |  |  |  |  | 43.6
CC(C)CCCC(C)CCCC(C)(O)C(O)CNCCCN1CCOCC1 (stereo not shown) [Compound (22)] |  |  | 46.9 |  | 
CC(C)CCCC(C)CCCC(C)CCCC(C)(O)C(CO)N(C)C (stereo not shown) [Compound (72)] | 51 | 60 | 24 | 9 | 
COc1ccc(CN2CCN(CC(O)C(C)(O)CCCC(C)CCCC(C)C)CC2)c(OC)c1OC (stereo not drawn) [Compound (18), 3,7,11-trimethyl-l-[4-[(2,3,4-trimethoxyphenyl)methyl]piperazin-1-yl]-2,3-dodecanediol] | 62 | 79 | 45 |  | 
CNCC(O)C(C)(O)CCCC(C)CCCC(C)CCCC(C)C (stereo not shown) [(31)] | 10.9 |  |  |  | 
CC(C)=CCCC(C)(O)C(CO)N1CCOCC1 (stereo not shown) [Compound (56)] | 27 | 44 | 16 | 0 | 
CC(C)CCCC(C)CCCC(C)(O)C(O)CNC1CCN(Cc2ccccc2)CC1 (stereo not shown) [Compound (40), 1-[(1-benzylpiperidin-4-yl)amino]-3,7-11-trimethyl-2,3-dodecanediol] |  |  | 34.8 |  | 
CC(C)CCCC(C)CCCC(C)(O)C(CO)N1CCSCC1 (stereo not shown) [Compound (68)] | 38 | 36 | 22 |  | 
CC(C)CCCC(C)CCCC(C)(O)C(O)Cn1ccnc1 (stereo not shown) [Compound (21), 1-(1H-imidazol-1-yl)-3,7,11-trimethyl-2,3-dodecanediol] |  |  | 66.9 |  | 
CCCCN(CCCC)C(CO)C(C)(O)CCCC(C)C (stereo not shown) [Compound (59), 2-(dibutylamino)-3,7-dimethyl-1,3-octanediol] | 49 | 51 | 0 |  | 
CC(C)=CCCC(C)(O)C(O)CN (stereo not shown) [Compound (43)] |  | 65 |  |  | 
CC(C)CCCC(C)CCCC(C)(O)C(C)N (stereo not shown) [Compound (61)] | 70 | 48 | 24 |  | 
CC(C)CCCC(C)CCCC(C)(O)C(O)CN(C)C (stereo not shown) [Compound (16), 1-(dimethylamino)-3,7,11-trimethyl-2,3-dodecanediol] | 48 | 35 | 15 |  | 
CCCCN(CCCC)CC(O)C(C)(O)CCCC(C)CCCC(C)C (stereo not shown) [Compound (13), 1-dibutylamino-3,7,11-trimethyl-2,3-dodecanediol] |  |  |  |  | 40.2
CCCCN(CCCC)CC(O)C(C)(O)CCCC(C)CCCC(C)CCCC(C)C (stereo not shown) [Compound (34)] | 65.2 | 33 | 3 |  | 
CCCNCC(O)C(C)(O)CCC=C(C)C (stereo not shown) [Compound (47)] | 52 | 43 | 5 |  | 
CNCC(O)C(C)(O)CCC=C(C)C (stereo not shown) [Compound (44)] | 63 | 54 |  |  | 
CC(C)CCCC(C)CCCC(C)(O)C(O)CN1CCCCC1 (stereo not shown) [Compound (39)] |  |  | 29.1 |  | 
CC(C)CCCC(C)CCCC(C)(O)C(O)CNc1ccc(O)cc1 (stereo not shown) [Compound (19)] | 43 | 54 | 33 |  | 
CC(C)=CCCC(C)(O)C(CO)N1CCCCC1 (stereo not shown) [Compound (55)] | 45 | 17 | 9 | 0 | 
COc1ccccc1N1CCN(CC(O)C(C)(O)CCCC(C)CCCC(C)C)CC1 (stereo not shown) [Compound (42)] |  | 58 | 35 |  | 
CC(C)=CCCC(C)(O)C(O)CN(C)c1ccccc1 (stereo not shown) [(2)] | 30.1 | 19.9 |  |  | 58.7
CC(C)CCCC(C)CCCC(C)(O)C(CO)N(C)C(=O)c1cccnc1 (stereo not shown) [Compound (66), N-methyl-N-(1,3-dihydroxy-3,7,11-trimethyldodecan-2-yl)nicotinamide] | 77 | 72 | 81 |  | 
